Experimental data: patent publication US12466821B2 (Novartis AG, priority 2018, dated 2025)
pEC50, pIC50: −log10 of the molar value.

Experiments:
[1] = target: human HSV DNA polymerase UL30 (Human herpesvirus 1 (strain 17) (HHV-1) (Human herpes simplex virus 1), UniProt P04293); test: HSV polymerase biochemical assay (molecular beacon-based)
How it was run: (§1)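 Readout was beacon fluorescence (ex 480, em 535 nm), used to derive IC50. Each dNTP was at 1.25 uM, with 200 nM primer and 100 nM beacon, after a 30-min RT inhibitor preincubation. Enzyme was 625 pM for HSV UL30 (20 min RT reaction) or 100 pM for CMV UL54 (60 min RT), both sf9-expressed MBP fusions, in pH 7.5 Tris buffer with MgCl2.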

[2] = test system: Luciferase-encoding HCMV, AD169 strain; test: CMV Luciferase assay (cellular herpesvirus replication); format: cell-based; details: Human betaherpesvirus 5, AD169, read-out: CMV-Luc Cellular EC50
How it was run: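 Neonatal human dermal fibroblasts were pretreated 1 h with compound (final 0.0159–50 μM or 0.00318–10 μM, 0.5% DMSO), then infected at MOI 1 with AD169 carrying pp28-promoter luciferase. After 72 h at 37 °C, Renilla-Glo luminescence normalized to no-virus and virus-only controls; EC50 by 4-parameter logistic model.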

[3] = target: human CMV DNA polymerase UL54 (Human cytomegalovirus (strain AD169) (HHV-5) (Human herpesvirus 5), UniProt P08546); test: CMV polymerase biochemical assay (molecular beacon-based)
How it was run: as §1

SMILES	pIC50 [1]	pEC50 [2]	pIC50 [3]
COC1(S(=O)(=O)C2(CN3CCn4c(ccc(C(=O)NCc5ccc(C#N)cc5)c4=O)C3=O)CC2)CC1 [Example 189]	7.22	7.25	8.96
O=C(NCc1ccc(Cl)cc1)c1ccc2n(c1=O)CCN(CCN1CCCC1=O)C2=O [Example 56]	5.32	5.42	6.51
N#Cc1ccc(CNC(=O)c2ccc3n(c2=O)CCN(CC2(S(=O)(=O)C4CNC4)CC2)C3=O)cc1 [Example 18]	6.79	5.52	8.38
CS(=O)(=O)CC1(CN2CCn3c(ccc(C(=O)NCc4ccc(Cl)cc4)c3=O)C2=O)CC1 [Example 173, N-(4-chlorobenzyl)-2-((1-((methylsulfonyl)methyl)cyclopropyl)methyl)-1,6-dioxo-1,3,4,6-tetrahydro-2H-pyrido[1,2-a]pyrazine-7-carboxamide]	6.63	6.44	7.69
CC(C)(C)[S+]([O-])C1(CN2CCn3c(ccc(C(=O)NCc4ccc(C#N)cc4)c3=O)C2=O)CC1 (stereo not drawn) [Example 106, 2-((1-(tert-Butylsulfinyl)cyclopropyl)methyl)-N-(4-cyanobenzyl)-1,6-dioxo-2,3,4,6-tetrahydro-1H-pyrido[1,2-a]pyrazine-7-carboxamide]	6.01	5.95	7.48
O=C(NCc1ccc(Cl)cc1)c1ccc2n(c1=O)CCN(CC1(N3CCCCC3=O)CC1)C2=O [Example 202]	5.19	5.12	6.52
CN(C(C)(C)C)S(=O)(=O)C1(CN2CCn3c(ccc(C(=O)NCc4ccc(Cl)cc4)c3=O)C2=O)CC1 [Example 74-1]	7.64	7.86	9.40
O=C(NCc1ccc(Cl)cc1)c1ccc2n(c1=O)CCN(CC1(S(=O)(=O)N3CC(F)(F)C3)CC1)C2=O [Example 84-3]	7.28	7.51	8.85
O=C(NCc1ccc(Cl)cc1)c1ccc2n(c1=O)CCN(CC1(N3CCOCC3=O)CC1)C2=O [Example 203]	4.91	5.00	6.39
N#Cc1ccc(CNC(=O)c2ccc3n(c2=O)CCN(CC2(S(=O)(=O)C4(C(F)F)CC4)CC2)C3=O)cc1Cl [Example 99-3]	6.70	6.77	9.10
N#Cc1ccc(CNC(=O)c2ccc3n(c2=O)CCN(CC2(S(=O)(=O)C4(F)CC4)CC2)C3=O)cc1 [Example 77-1, N-(4-cyanobenzyl)-2-((1-((1-fluorocyclopropyl)sulfonyl)cyclopropyl)methyl)-1,6-dioxo-2,3,4,6-tetrahydro-1H-pyrido[1,2-a]pyrazine-7-carboxamide]	7.02	6.90	8.49
CC1(CS(=O)(=O)C2(CN3CCn4c(ccc(C(=O)NCc5ccc(C#N)cc5)c4=O)C3=O)CC2)COC1 [Example 103-2]	6.97	5.90	8.96
N#Cc1ccc(CNC(=O)c2ccc3n(c2=O)CCN(CC2(S(=O)(=O)C4CCC4)CC2)C3=O)cc1F [Example 79-2]	7.18	7.46	8.70
Cc1cc(C(=O)NCc2ccc(Cl)cc2)c(=O)n2c1C(=O)N(CCS(C)(=O)=O)CC2 [Example 153]	6.41	6.20	6.93
N#Cc1ccc(CNC(=O)c2ccc3n(c2=O)CCN(CC2(S(=O)(=O)C4(F)CC4)CC2)C3=O)cc1F [Example 77-2]	7.11	7.24	8.72
CC1(CS(=O)(=O)C2(CN3CCn4c(ccc(C(=O)NCc5ccc(C#N)c(F)c5)c4=O)C3=O)CC2)COC1 [Example 103-3]	6.77	6.10	7.97
CS(=O)(=O)NC1(CN2CCn3c(ccc(C(=O)NCc4ccc(Cl)cc4)c3=O)C2=O)CC1 [Example 198]	5.82	5.78	7.43
CC(C)(C(=O)NS(C)(=O)=O)S(=O)(=O)C1(CN2CCn3c(ccc(C(=O)NCc4ccc(Cl)cc4)c3=O)C2=O)CC1 [Example 176, N-(4-chlorobenzyl)-2-((1-((2-methyl-1-(methylsulfonamido)-1-oxopropan-2-yl)sulfonyl)cyclopropyl)methyl)-1,6-dioxo-1,3,4,6-tetrahydro-2H-pyrido[1,2-a]pyrazine-7-carboxamide]	7.21	5.14	8.34
O=C(NCc1ccc(Cl)cc1)c1cc(C(F)(F)F)c2n(c1=O)CCN(CCN1CCCS1(=O)=O)C2=O [Example 147]	5.30	4.67	6.25
